# Patent US20260001928A1 (CORTERIA PHARMACEUTICALS, priority 2022, published 2026)
# *1 amine or outer side, *2 acyl side, *3 side chain or, on linkers, in order; H or OH if unused. Where a SMILES comes first, the peptide text is derived from it. Side-chain parts run from the residue outwards. [ ]: non-standard residue; d: D form. The star is where a group is joined. C18 diacid = O=C(O)CCCCCCCCCCCCCCCCC(=O)*; C16 diacid = O=C(O)CCCCCCCCCCCCCCC(=O)*; γGlu = O=C(O)[C@H](CCC(=O)[*:2])N[*:1]; C12 diacid = O=C(O)CCCCCCCCCCC(=O)*; NMeI = CC[C@H](C)[C@H](NC)C(=O)O; Ac5c = NC1(C(=O)O)CCCC1; Dap = NC[C@H](N)C(=O)O; AEEA = NCCOCCOCC(=O)O; Aib = CC(C)(N)C(=O)O
# What was measured:
# [1] = biological target: T1, human CRF2a receptor (Homo sapiens, UniProt Q13324); test: Activity at human CRF2a receptor, cAMP functional assay in TeloHEAC cells; assay type: cell-based; settings: TeloHEAC cells stably expressing human CRF2a receptor, relative to urocortin 2 (100 nM = 100%)
# T1 construct: expressed in transfected cells; host or cells: TeloHEAC cells
# T1 sequence (Q13324 1-411): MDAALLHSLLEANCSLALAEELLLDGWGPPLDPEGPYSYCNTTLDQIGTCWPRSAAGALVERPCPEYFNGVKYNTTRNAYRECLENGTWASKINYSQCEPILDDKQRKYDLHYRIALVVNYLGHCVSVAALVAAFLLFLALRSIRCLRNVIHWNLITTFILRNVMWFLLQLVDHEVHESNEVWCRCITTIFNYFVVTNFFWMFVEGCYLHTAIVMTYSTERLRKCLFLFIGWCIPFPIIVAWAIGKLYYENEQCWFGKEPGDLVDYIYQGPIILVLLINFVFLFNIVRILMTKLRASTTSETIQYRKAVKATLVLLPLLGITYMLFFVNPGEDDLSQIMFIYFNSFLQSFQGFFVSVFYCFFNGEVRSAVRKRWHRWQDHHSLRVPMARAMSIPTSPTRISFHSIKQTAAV
# Summary of the method: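 TeloHEAC cells stably expressing human CRF2a (10000 cells/well) were treated with 16-point 1:2 compound dilutions in HBSS/20 mM HEPES with IBMX for 30 min at 37° C. cAMP was read by HTRF (665/620 nm ratio). EC50 was the concentration giving 50% activation, with 100 nM urocortin 2 set as 100%.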
# [2] = biological target: T2, CFR1R receptor (Homo sapiens, UniProt P34998); test: Activity at anti-target CFR1R receptor, cAMP assay in CRF1R-overexpression CHO-K1 cells; assay type: cell-based; settings: 100% = Sauvagine at 100 nM; for EC50: cAMP
# T2 construct: host or cells: CHO-K1 (clone 2)
# T2 sequence (P34998 24-415): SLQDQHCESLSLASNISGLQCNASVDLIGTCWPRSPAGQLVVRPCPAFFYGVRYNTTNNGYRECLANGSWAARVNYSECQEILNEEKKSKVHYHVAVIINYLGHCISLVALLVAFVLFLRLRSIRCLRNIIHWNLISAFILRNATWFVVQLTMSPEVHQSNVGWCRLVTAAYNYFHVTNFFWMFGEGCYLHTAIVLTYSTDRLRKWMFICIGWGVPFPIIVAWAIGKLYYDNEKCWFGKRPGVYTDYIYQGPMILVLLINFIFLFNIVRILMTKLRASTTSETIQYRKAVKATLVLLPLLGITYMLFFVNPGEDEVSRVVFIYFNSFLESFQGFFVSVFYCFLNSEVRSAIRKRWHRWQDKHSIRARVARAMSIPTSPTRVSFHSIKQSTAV
# Summary of the method: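 Run as for the TeloHAEC line, except the full-activation control well received Sauvagine (100 nM) and final density was 4000 cells/well. Cells from clone 2 came from frozen aliquots of near-confluent cultures.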
SMILES,EC50 [1] [nM],Emax (% I) [2] [% I],EC50 [2] [nM]
CC[C@H](C)[C@H](NC(C)=O)C(=O)N[C@H](C(=O)N[C@@H](CC(C)C)C(=O)N[C@@H](CO)C(=O)N[C@@H](CC(C)C)C(=O)N[C@@H](CC(=O)O)C(=O)N[C@@H](C(=O)N1CCC[C@H]1C(=O)N[C@H](C(=O)N[C@@H](CCCCN)C(=O)N[C@@H](CC(C)C)C(=O)N[C@@H](CCCCNC(=O)CC[C@H](NC(=O)CCCCCCCCCCCCCCC(=O)O)C(=O)O)C(=O)N[C@@H](CCCCN)C(=O)N[C@H](C(=O)N[C@@H](CC(C)C)C(=O)N[C@@H](CC(C)C)C(=O)N[C@@H](CCC(=O)O)C(=O)N[C@@H](CCC(N)=O)C(=O)N[C@@H](CCC(=O)O)C(=O)N[C@@H](CCCCN)C(=O)N[C@@H](CCC(N)=O)C(=O)N[C@@H](CCCCN)C(=O)N[C@@H](CCCCN)C(=O)N[C@@H](CCC(N)=O)C(=O)N[C@@H](CCCNC(=N)N)C(=O)N[C@@H](CCC(=O)O)C(=O)N[C@@H](CCC(N)=O)C(=O)N[C@@H](C)C(=O)N[C@@H](CCC(=O)O)C(=O)N[C@H](C(=O)N[C@@H](CC(N)=O)C(=O)NC1(C(=O)N[C@@H](CCC(N)=O)C(=O)N[C@H](C(=O)N[C@@H](CC(C)C)C(=O)N[C@@H](C)C(=O)N[C@@H](CCC(N)=O)C(=O)N[C@H](C(N)=O)C(C)C)[C@@H](C)CC)CCCC1)[C@@H](C)O)[C@@H](C)CC)[C@@H](C)CC)C(C)C)C(C)C [compound 60] (Ac-IVLSLD[dV]PIKLK([γGlu-C16 diacid])KILLEQEKQKKQREQAETN[Ac5c]QILAQV-NH2),0.34,5,> 250
CC[C@H](C)[C@H](NC(C)=O)C(=O)N[C@H](C(=O)N[C@@H](CC(C)C)C(=O)N[C@@H](CO)C(=O)N[C@@H](CC(C)C)C(=O)N[C@@H](CC(=O)O)C(=O)N[C@@H](C(=O)N1CCC[C@H]1C(=O)N[C@H](C(=O)N[C@@H](CCCCN)C(=O)N[C@@H](CC(C)C)C(=O)N[C@@H](CCCCNC(=O)CC[C@H](NC(=O)CCCCCCCCCCCCCCC(=O)O)C(=O)O)C(=O)N[C@@H](CCCCN)C(=O)N[C@H](C(=O)N[C@@H](CC(C)C)C(=O)N[C@@H](CC(C)C)C(=O)N[C@@H](CCC(=O)O)C(=O)N[C@@H](CCC(N)=O)C(=O)N[C@@H](CCC(=O)O)C(=O)N[C@@H](CCCCN)C(=O)N[C@@H](CCC(N)=O)C(=O)N[C@@H](CCCCN)C(=O)NC(C)(C)C(=O)N[C@@H](CCC(N)=O)C(=O)N[C@@H](CCCNC(=N)N)C(=O)N[C@@H](CCC(=O)O)C(=O)N[C@@H](CCC(N)=O)C(=O)N[C@@H](C)C(=O)N[C@@H](CCC(=O)O)C(=O)N[C@H](C(=O)N[C@@H](CC(N)=O)C(=O)NC(C)(C)C(=O)N[C@@H](CCC(N)=O)C(=O)N[C@H](C(=O)N[C@@H](CC(C)C)C(=O)N[C@@H](C)C(=O)N[C@@H](CCC(N)=O)C(=O)N[C@H](C(N)=O)C(C)C)[C@@H](C)CC)[C@@H](C)O)[C@@H](C)CC)[C@@H](C)CC)C(C)C)C(C)C [compound 162] (Ac-IVLSLD[dV]PIKLK([γGlu-C16 diacid])KILLEQEKQK[Aib]QREQAETN[Aib]QILAQV-NH2),0.49,0,> 250
CC[C@H](C)[C@H](NC)C(=O)N[C@H](C(=O)N[C@@H](CC(C)C)C(=O)N[C@@H](CO)C(=O)N[C@@H](CC(C)C)C(=O)N[C@@H](CC(=O)O)C(=O)N[C@@H](C(=O)N1CCC[C@H]1C(=O)N[C@H](C(=O)N[C@@H](CCCCN)C(=O)N[C@@H](CC(C)C)C(=O)N[C@@H](CCCCNC(=O)COCCOCCNC(=O)COCCOCCNC(=O)CC[C@H](NC(=O)CCCCCCCCCCCCCCCCC(=O)O)C(=O)O)C(=O)N[C@@H](CCCCN)C(=O)N[C@H](C(=O)N[C@@H](CC(C)C)C(=O)N[C@@H](CC(C)C)C(=O)N[C@@H](CCC(=O)O)C(=O)N[C@@H](CCC(N)=O)C(=O)N[C@@H](CCC(=O)O)C(=O)N[C@@H](CCCCN)C(=O)N[C@@H](CCC(N)=O)C(=O)N[C@@H](CCCCN)C(=O)NC(C)(C)C(=O)N[C@@H](CCC(N)=O)C(=O)N[C@@H](CCCNC(=N)N)C(=O)N[C@@H](CCC(=O)O)C(=O)N[C@@H](CCC(N)=O)C(=O)N[C@@H](C)C(=O)N[C@@H](CCC(=O)O)C(=O)N[C@H](C(=O)N[C@@H](CC(N)=O)C(=O)NC(C)(C)C(=O)N[C@@H](CCC(N)=O)C(=O)N[C@H](C(=O)N[C@@H](CC(C)C)C(=O)N[C@@H](C)C(=O)N[C@@H](CCC(N)=O)C(=O)N[C@H](C(N)=O)C(C)C)[C@@H](C)CC)[C@@H](C)O)[C@@H](C)CC)[C@@H](C)CC)C(C)C)C(C)C [compound 200] (H-[NMeI]VLSLD[dV]PIKLK([AEEA-AEEA-γGlu-C18 diacid])KILLEQEKQK[Aib]QREQAETN[Aib]QILAQV-NH2),0.71,2,> 250
CC[C@H](C)[C@H](NC)C(=O)N[C@H](C(=O)N[C@@H](CC(C)C)C(=O)N[C@@H](CO)C(=O)N[C@@H](CC(C)C)C(=O)N[C@@H](CC(=O)O)C(=O)N[C@@H](C(=O)N1CCC[C@H]1C(=O)N[C@H](C(=O)N[C@@H](CCCCN)C(=O)N[C@@H](CC(C)C)C(=O)N[C@@H](CCCCNC(=O)CC[C@H](NC(=O)CCCCCCCCCCC(=O)O)C(=O)O)C(=O)N[C@@H](CCCCN)C(=O)N[C@H](C(=O)N[C@@H](CC(C)C)C(=O)N[C@@H](CC(C)C)C(=O)N[C@@H](CCC(=O)O)C(=O)N[C@@H](CCC(N)=O)C(=O)N[C@@H](CCC(=O)O)C(=O)N[C@@H](CCCCN)C(=O)N[C@@H](CCC(N)=O)C(=O)N[C@@H](CCCCN)C(=O)N[C@@H](CCCCN)C(=O)N[C@@H](CCC(N)=O)C(=O)N[C@@H](CCCNC(=N)N)C(=O)N[C@@H](CCC(=O)O)C(=O)N[C@@H](CCC(N)=O)C(=O)N[C@@H](C)C(=O)N[C@@H](CCC(=O)O)C(=O)N[C@H](C(=O)N[C@@H](CC(N)=O)C(=O)NC(C)(C)C(=O)N[C@@H](CCC(N)=O)C(=O)N[C@H](C(=O)N[C@@H](CC(C)C)C(=O)N[C@@H](C)C(=O)N[C@@H](CCC(N)=O)C(=O)N[C@H](C(N)=O)C(C)C)[C@@H](C)CC)[C@@H](C)O)[C@@H](C)CC)[C@@H](C)CC)C(C)C)C(C)C [compound 186] (H-[NMeI]VLSLD[dV]PIKLK([γGlu-C12 diacid])KILLEQEKQKKQREQAETN[Aib]QILAQV-NH2),0.79,2,> 250
CC[C@H](C)[C@H](NC)C(=O)N[C@H](C(=O)N[C@@H](CC(C)C)C(=O)N[C@@H](CO)C(=O)N[C@@H](CC(C)C)C(=O)N[C@@H](CC(=O)O)C(=O)N[C@@H](C(=O)N1CCC[C@H]1C(=O)N[C@H](C(=O)N[C@@H](CCCCN)C(=O)N[C@@H](CC(C)C)C(=O)N[C@@H](CCCCNC(=O)CC[C@H](NC(=O)CCCCCCCCCCCCCCCCC(=O)O)C(=O)O)C(=O)N[C@@H](CCCCN)C(=O)N[C@H](C(=O)N[C@@H](CC(C)C)C(=O)N[C@@H](CC(C)C)C(=O)N[C@@H](CCC(=O)O)C(=O)N[C@@H](CCC(N)=O)C(=O)N[C@@H](CCC(=O)O)C(=O)N[C@@H](CCCCN)C(=O)N[C@@H](CCC(N)=O)C(=O)N[C@@H](CCCCN)C(=O)N[C@@H](CCCCN)C(=O)N[C@@H](CCC(N)=O)C(=O)N[C@@H](CCCNC(=N)N)C(=O)N[C@@H](CCC(=O)O)C(=O)N[C@@H](CCC(N)=O)C(=O)N[C@@H](C)C(=O)N[C@@H](CCC(=O)O)C(=O)N[C@H](C(=O)N[C@@H](CC(N)=O)C(=O)N[C@@H](CN)C(=O)N[C@@H](CCC(N)=O)C(=O)N[C@H](C(=O)N[C@@H](CC(C)C)C(=O)N[C@@H](C)C(=O)N[C@@H](CCC(N)=O)C(=O)N[C@H](C(N)=O)C(C)C)[C@@H](C)CC)[C@@H](C)O)[C@@H](C)CC)[C@@H](C)CC)C(C)C)C(C)C [compound 140] (H-[NMeI]VLSLD[dV]PIKLK([γGlu-C18 diacid])KILLEQEKQKKQREQAETN[Dap]QILAQV-NH2),0.17,14,> 250
